Values of other authors as cited in PMC6504684 (Frontiers in Pharmacology, 2019).

Tested on: α9α10 nAChRs, mutation α9-Asp121Leu
Conditions: cited from earlier work

For `CC(=O)OCC[N+](C)(C)C` [ACh, acetylcholine], which “increase of EC50” value is on record?
The value was roughly 30 times.
